Results published in patent publication US4971965A, “Antibiotics TAN-1057” (Takeda Chemical Industries, Ltd., priority 1988, dated 1990).
Converted amounts (≈) assume the structure as drawn.

Tests used:
Type in all cases: cell-based
Staphylococcus aureus C3 = experiment: Antibacterial activity against clinically isolated S. aureus (agar dilution MIC, Table 2); details: Staphylococcus aureus; strain C3; agar dilution; Mueller Hinton medium; 10^6 CFU/ml; read-out: MIC
Procedure: (§1) DMPPC: Methicillin, KM: Kanamycin, GM: Gentamycin, EM: Erythromycin (Note
(§2) Determined by the agar dilution method. Medium: Mueller Hinton medium
(§3) (Difco, USA) Inoculum Size: 10^6 CFU/ml, 37° C.

Staphylococcus aureus C4 = experiment: as above; details: Staphylococcus aureus, C4
Procedure: as §1, §2, §3

Staphylococcus aureus C7 = experiment: as above; details: Staphylococcus aureus; strain C7; agar dilution; Mueller Hinton medium; 10^6 CFU/ml; read-out: MIC
Procedure: as §1, §2, §3

[1] = system: Staphylococcus aureus N121; experiment: as above; details: Staphylococcus aureus; strain N121; agar dilution; Mueller Hinton medium; 10^6 CFU/ml; read-out: MIC
Procedure: as §1, §2, §3

[2] = system: Staphylococcus aureus N129; experiment: as above; details: Staphylococcus aureus; strain N129; agar dilution; Mueller Hinton medium; 10^6 CFU/ml; read-out: MIC
Procedure: as §1, §2, §3

[3] = system: Staphylococcus aureus N176-3; experiment: as above; details: Staphylococcus aureus, N1763; strain N176-3; agar dilution; Mueller Hinton medium; 10^6 CFU/ml; read-out: MIC
Procedure: as §1, §2, §3

[4] = system: Staphylococcus aureus N176-6; experiment: as above; details: Staphylococcus aureus, N1766; strain N176-6; agar dilution; Mueller Hinton medium; 10^6 CFU/ml; read-out: MIC
Procedure: as §1, §2, §3

[5] = system: Staphylococcus aureus N176; experiment: as above; details: Staphylococcus aureus; strain N176; agar dilution; Mueller Hinton medium; 10^6 CFU/ml; read-out: MIC
Procedure: as §1, §2, §3

[6] = system: Staphylococcus aureus N237; experiment: as above; details: Staphylococcus aureus; strain N237; agar dilution; Mueller Hinton medium; 10^6 CFU/ml; read-out: MIC
Procedure: as §1, §2, §3

[7] = system: Staphylococcus aureus N247-16; experiment: as above; details: Staphylococcus aureus, N24716; strain N247-16; agar dilution; Mueller Hinton medium; 10^6 CFU/ml; read-out: MIC
Procedure: as §1, §2, §3

[8] = system: Staphylococcus aureus N247-21; experiment: as above; details: Staphylococcus aureus, N24721; strain N247-21; agar dilution; Mueller Hinton medium; 10^6 CFU/ml; read-out: MIC
Procedure: as §1, §2, §3

[9] = system: Staphylococcus aureus N247; experiment: as above; details: Staphylococcus aureus; strain N247; agar dilution; Mueller Hinton medium; 10^6 CFU/ml; read-out: MIC
Procedure: as §1, §2, §3

[10] = system: Staphylococcus aureus N267; experiment: as above; details: Staphylococcus aureus; strain N267; agar dilution; Mueller Hinton medium; 10^6 CFU/ml; read-out: MIC
Procedure: as §1, §2, §3

[11] = system: Staphylococcus aureus N28; experiment: as above; details: Staphylococcus aureus; strain N28; agar dilution; Mueller Hinton medium; 10^6 CFU/ml; read-out: MIC
Procedure: as §1, §2, §3

[12] = system: Staphylococcus aureus N326; experiment: as above; details: Staphylococcus aureus; strain N326; agar dilution; Mueller Hinton medium; 10^6 CFU/ml; read-out: MIC
Procedure: as §1, §2, §3

[13] = system: Staphylococcus aureus N51; experiment: as above; details: Staphylococcus aureus; strain N51; agar dilution; Mueller Hinton medium; 10^6 CFU/ml; read-out: MIC
Procedure: as §1, §2, §3

[14] = system: Staphylococcus aureus N62; experiment: as above; details: Staphylococcus aureus; strain N62; agar dilution; Mueller Hinton medium; 10^6 CFU/ml; read-out: MIC
Procedure: as §1, §2, §3

[15] = system: Staphylococcus aureus N83; experiment: as above; details: Staphylococcus aureus; strain N83; agar dilution; Mueller Hinton medium; 10^6 CFU/ml; read-out: MIC
Procedure: as §1, §2, §3

Staphylococcus aureus N8 = experiment: as above; details: Staphylococcus aureus; strain N8; agar dilution; Mueller Hinton medium; 10^6 CFU/ml; read-out: MIC
Procedure: as §1, §2, §3

[16] = system: Staphylococcus aureus N91; experiment: as above; details: Staphylococcus aureus; strain N91; agar dilution; Mueller Hinton medium; 10^6 CFU/ml; read-out: MIC
Procedure: as §1, §2, §3

[17] = system: Staphylococcus aureus TST-75; experiment: as above; details: Staphylococcus aureus, TST75; strain TST-75; agar dilution; Mueller Hinton medium; 10^6 CFU/ml; read-out: MIC
Procedure: as §1, §2, §3

[18] = system: Bacillus megaterium IFO 12108; details: Priestia megaterium, IFO12108, read-out: Minimum Inhibitory Conc. (MIC)
Procedure: (§4) (Note 1) Measurement was conducted by employing a medium consisting of DY
(§5) medium [Bacto Antibiotic Medium 3 (Difco Laboratories, USA)(17.5 g), Bact
(§6) yeast extract(Difco Laboratories, USA)(5.0 g) and distilled water(pH
(§7) unadjusted)(1000 ml)], using approximately 10^6 colony forming unit/m
(§8) of inoculum, by means of the agar dilution method.

[19] = system: Escherichia coli NIHJ JC 2; details: NIHJJC2, agar dilution, DY medium, pH unadjusted, approx. 10^6 CFU/ml, read-out: Minimum Inhibitory Conc. (MIC)
Procedure: as §4, §5, §6, §7, §8

[20] = system: Klebsiella pnemoniae IFO 3317; details: IFO3317, agar dilution, DY medium, pH unadjusted, approx. 10^6 CFU/ml, read-out: Minimum Inhibitory Conc. (MIC)
Procedure: as §4, §5, §6, §7, §8

[21] = system: Pseudomonas aeruginosa IFO 3080; details: IFO3080, agar dilution, DY medium, pH unadjusted, approx. 10^6 CFU/ml, read-out: Minimum Inhibitory Conc. (MIC)
Procedure: as §4, §5, §6, §7, §8

[22] = system: Salmonella typhimurium IFO 12529; details: Salmonella enterica; agar dilution; DY medium, pH unadjusted; approx. 10^6 CFU/ml; read-out: Minimum Inhibitory Conc. (MIC)
Procedure: as §4, §5, §6, §7, §8

[23] = system: Staphylococcus aureus FDA 209P; details: FDA209P, read-out: Minimum Inhibitory Conc. (MIC)
Procedure: as §4, §5, §6, §7, §8

CN(C(=O)C[C@@H](N)CCCNC(=N)N)[C@H]1CNC(NC(N)=O)=NC1=O [TAN-1057A]
MIC (Staphylococcus aureus C3): 0.78 µg/mL (≈ 2.19 µM)
MIC (Staphylococcus aureus C4): 6.25 µg/mL (≈ 17.6 µM)
MIC (Staphylococcus aureus C7): 0.78 µg/mL (≈ 2.19 µM)
MIC [1]: 0.78 µg/mL (≈ 2.19 µM)
MIC [2]: 0.39 µg/mL (≈ 1.1 µM)
MIC [3]: 1.56 µg/mL (≈ 4.39 µM)
MIC [4]: 0.78 µg/mL (≈ 2.19 µM)
MIC [5]: 1.56 µg/mL (≈ 4.39 µM)
MIC [6]: 0.78 µg/mL (≈ 2.19 µM)
MIC [7]: 0.78 µg/mL (≈ 2.19 µM)
MIC [8]: 0.78 µg/mL (≈ 2.19 µM)
MIC [9]: 1.56 µg/mL (≈ 4.39 µM)
MIC [10]: ≤ 0.2 µg/mL
MIC [11]: 0.78 µg/mL (≈ 2.19 µM)
MIC [12]: 0.78 µg/mL (≈ 2.19 µM)
MIC [13]: 0.78 µg/mL (≈ 2.19 µM)
MIC [14]: 0.78 µg/mL (≈ 2.19 µM)
MIC [15]: 0.39 µg/mL (≈ 1.1 µM)
MIC (Staphylococcus aureus N8): 0.78 µg/mL (≈ 2.19 µM)
MIC [16]: 0.78 µg/mL (≈ 2.19 µM)
MIC [17]: 0.78 µg/mL (≈ 2.19 µM)
MIC [18]: 12.5 µg/mL (≈ 35.2 µM)
MIC [19]: > 100 µg/mL
MIC [20]: > 100 µg/mL
MIC [21]: > 100 µg/mL
MIC [22]: 100 µg/mL (≈ 281 µM)
MIC [23]: 6.25 µg/mL (≈ 17.6 µM)
